SMILES strings stand for the structures.

The IC50 is the midpoint of a concentration-inhibition curve.

The test system of this experiment is LPS-induced TNF-α release in peripheral blood mononuclear cells (PBMCs). Put plainly: In vitro determination of PDE4 inhibitory activity in the PBMCs assay (LPS-induced TNF-α release). The format is cell-based, human. The conditions noted are these: PBMC; human PBMCs, LPS 3 ng/ml, 18 hours, TNF-α by ELISA; read-out: PDE4 inhibition (IC50, 50% inhibition of LPS-induced TNF-α release). How it is done: The assay, which is based on the known inhibitory activity exerted by PDE4 inhibitors on the lipopolyshaccarides (LPS)-induced tumour necrosis factor-alpha (TNF-α release in peripheral blood mononuclear cells (PBMCs), was performed according to a method previously described (Hatzelmann A et al., J. Pharmacol. Exp. Ther., 2001; 297:267-279; and Draheim R et al., J. Pharmacol. Exp. Ther., 2004; 308:555-563, which are incorporated herein by reference in their entireties). Cryopreserved human PBMCs, (100 l/well) were incubated in 96-well plates (10^5 cells/well), for 30 minutes, in the presence or absence (50 microl) of the test compounds whose concentrations ranged from 10^−12 M to 10^−6 M or from […] to 10^−7 M. Subsequently, LPS (3 ng/ml) was added.
After 18 hours of incubation at 37° C. in a humidified incubator under an atmosphere of 95% air and 5% CO2, culture medium was collected and TNF-α measured by ELISA. The results of the tested compounds, representatives of the invention, expressed as mean±95% confidence limits of the molar concentration of the test compound producing 50% inhibition of LPS-induced TNF-α release (IC50) are shown in the following Table: […]
In general terms: An ELISA detects its analyte on a solid surface through an enzyme-linked reagent.
Consider `Nc1ccc(S(=O)(=O)N2CCN(CC(=O)O[C@@H](Cc3c(Cl)c[n+]([O-])cc3Cl)c3ccc(OC(F)F)c(OCC4CC4)c3)CC2)cc1` [Compound 141, (S)-4-(2-(2-(4-(4-aminophenylsulfonyl)piperazin-1-yl)acetoxy)-2-(3-(cyclopropylmethoxy)-4-(difluoromethoxy)phenyl)ethyl)-3,5-dichloropyridine 1-oxide], for which the IC50 was in the range of 0.1 to 1 nM.

Turning to `CN(C)C(=O)c1cccc(S(=O)(=O)N2CCC[C@@H](C(=O)O[C@@H](Cc3c(Cl)c[n+]([O-])cc3Cl)c3ccc(OC(F)F)c(OCC4CC4)c3)C2)c1` [Compound 228], the IC50 lay within 0.1 to 1 nM. Consider `CNS(=O)(=O)c1cccc(S(=O)(=O)N2CCSC2C(=O)O[C@@H](Cc2c(Cl)c[n+]([O-])cc2Cl)c2ccc(OC(F)F)c(OCC3CC3)c2)c1` (stereo partly drawn) [Compound 118, 3,5-dichloro-4-((2S)-2-(3-(cyclopropylmethoxy)-4-(difluoromethoxy)phenyl)-2-(3-(3-(N-methylsulfamoyl)phenylsulfonyl)thiazolidine-2-carbonyloxy)ethyl)pyridine 1-oxide], for which the IC50 is below 0.1 nM. Consider `CN(C)C(=O)c1cccc(C(=O)N2CCC[C@@H]2C(=O)O[C@@H](Cc2c(Cl)c[n+]([O-])cc2Cl)c2ccc(OC(F)F)c(OCC3CC3)c2)c1` [Compound 185, 3,5-dichloro-4-((S)-2-(3-(cyclopropylmethoxy)-4-(difluoromethoxy)phenyl)-2-((R)-1-(3-(dimethylcarbamoyl)benzoyl)pyrrolidine-2-carbonyloxy)ethyl)pyridine 1-oxide], for which the IC50 lay in the range of 0.1 to 1 nM. The same measure for `COc1ccc(S(=O)(=O)N2CCSC2C(=O)O[C@@H](Cc2c(Cl)c[n+]([O-])cc2Cl)c2ccc(OC(F)F)c(OCC3CC3)c2)cc1N` (stereo partly drawn) [Compound 137, 4-((2S)-2-(3-(3-amino-4-methoxyphenylsulfonyl)thiazolidine-2-carbonyloxy)-2-(3-(cyclopropylmethoxy)-4-(difluoromethoxy)phenyl)ethyl)-3,5-dichloropyridine 1-oxide]: 0.1 to 1 nM; for `CC(=O)c1cccc(S(=O)(=O)N2CCS[C@H]2C(=O)O[C@@H](Cc2c(Cl)c[n+]([O-])cc2Cl)c2ccc(OC(F)F)c(OCC3CC3)c2)c1` [Compound 117, 4-((S)-2-((S)-3-(3-acetylphenylsulfonyl)thiazolidine-2-carbonyloxy)-2-(3-(cyclopropylmethoxy)-4-(difluoromethoxy)phenyl)ethyl)-3,5-dichloropyridine 1-oxide]: 0.1 to 1 nM.

For `Cc1noc2ncc(S(=O)(=O)N3CCSC3C(=O)O[C@@H](Cc3c(Cl)c[n+]([O-])cc3Cl)c3ccc(OC(F)F)c(OCC4CC4)c3)cc12` (stereo in doubt) [Compound 239, 3,5-dichloro-4-((S)-2-(3-(cyclopropylmethoxy)-4-(difluoromethoxy)phenyl)-2-((S)-3-(3-methylisoxazolo[5,4-b]pyridin-5-ylsulfonyl)thiazolidine-2-carbonyloxy)ethyl)pyridine 1-oxide], the IC50 is below 0.1 nM. Regarding `O=C(O[C@@H](Cc1c(Cl)c[n+]([O-])cc1Cl)c1ccc(OC(F)F)c(OCC2CC2)c1)[C@@H]1SCCN1S(=O)(=O)c1ccco1` [Compound 95, 3,5-dichloro-4-((S)-2-(3-(cyclopropylmethoxy)-4-(difluoromethoxy)phenyl)-2-((S)-3-(furan-2-ylsulfonyl)thiazolidine-2-carbonyloxy)ethyl)pyridine 1-oxide], the IC50 is below 0.1 nM. On to `O=C(O[C@@H](Cc1c(Cl)c[n+]([O-])cc1Cl)c1ccc(OC(F)F)c(OCC2CC2)c1)[C@@H]1SCCN1C(=O)c1ccc(N2CCS(=O)(=O)CC2)cc1` [Compound 36], for which the IC50 fell in the range of 0.1 to 1 nM.

Regarding `CS(=O)(=O)c1ccc(S(=O)(=O)N2CCSC2C(=O)O[C@@H](Cc2c(Cl)c[n+]([O-])cc2Cl)c2ccc(OC(F)F)c(OCC3CC3)c2)cc1` (stereo partly drawn) [Compound 92, 3,5-dichloro-4-((2S)-2-(3-(cyclopropylmethoxy)-4-(difluoromethoxy)phenyl)-2-(3-(4-(methylsulfonyl)phenylsulfonyl)thiazolidine-2-carbonyloxy)ethyl)pyridine 1-oxide], the IC50 is below 0.1 nM. Turning to `O=C(O[C@@H](Cc1c(Cl)c[n+]([O-])cc1Cl)c1ccc(OC(F)F)c(OCC2CC2)c1)C1SCCN1S(=O)(=O)CC1CC1` (stereo partly drawn) [Compound 65, 3,5-dichloro-4-((2S)-2-(3-(cyclopropylmethoxy)-4-(difluoromethoxy)phenyl)-2-(3-(cyclopropylmethylsulfonyl)thiazolidine-2-carbonyloxy)ethyl)pyridine 1-oxide], the IC50 was in the range of 0.1 to 1 nM. With `COc1cccc(S(=O)(=O)N2CCS[C@H]2C(=O)O[C@@H](Cc2c(Cl)c[n+]([O-])cc2Cl)c2ccc(OC(F)F)c(OCC3CC3)c2)c1` [Compound 103, 3,5-dichloro-4-((S)-2-(3-(cyclopropylmethoxy)-4-(difluoromethoxy)phenyl)-2-((S)-3-(3-methoxyphenylsulfonyl)thiazolidine-2-carbonyloxy)ethyl)pyridine 1-oxide], the IC50 was in the range of 0.1 to 1 nM. With `Cc1noc(C)c1S(=O)(=O)N1CCSC1C(=O)O[C@@H](Cc1c(Cl)c[n+]([O-])cc1Cl)c1ccc(OC(F)F)c(OCC2CC2)c1` (stereo partly drawn) [Compound 76, 3,5-dichloro-4-((2S)-2-(3-(cyclopropylmethoxy)-4-(difluoromethoxy)phenyl)-2-(3-(3,5-dimethylisoxazol-4-ylsulfonyl)thiazolidine-2-carbonyloxy)ethyl)pyridine 1-oxide], the IC50 lay within 0.1 to 1 nM. In the case of `COc1ccc(S(=O)(=O)N2CCC[C@H]2C(=O)O[C@@H](Cc2c(Cl)c[n+]([O-])cc2Cl)c2ccc(OC(F)F)c(OCC3CC3)c2)cc1C(=O)N(C)C` [Compound 124, 3,5-dichloro-4-((S)-2-(3-(cyclopropylmethoxy)-4-(difluoromethoxy)phenyl)-2-((S)-1-(3-(dimethylcarbamoyl)-4-methoxyphenylsulfonyl)pyrrolidine-2-carbonyloxy)ethyl)pyridine 1-oxide], the IC50 is below 0.1 nM.

On to `COc1ccc([C@H](Cc2c(Cl)c[n+]([O-])cc2Cl)OC(=O)[C@@H]2CCCN2S(=O)(=O)c2cccc(C(=O)N(C)C)c2)cc1OC` [Compound 310, 3,5-dichloro-4-((S)-2-(3,4-dimethoxyphenyl)-2-((S)-1-(3-(dimethylcarbamoyl)phenylsulfonyl)pyrrolidine-2-carbonyloxy)ethyl)pyridine 1-oxide], for which the IC50 was below 0.1 nM. Consider `NC(=O)c1ccc(C(=O)N2CCS[C@H]2C(=O)O[C@@H](Cc2c(Cl)c[n+]([O-])cc2Cl)c2ccc(OC(F)F)c(OCC3CC3)c2)cc1` [Compound 37, 4-((S)-2-((S)-3-(4-carbamoylbenzoyl)thiazolidine-2-carbonyloxy)-2-(3-(cyclopropylmethoxy)-4-(difluoromethoxy)phenyl)ethyl)-3,5-dichloropyridine 1-oxide], for which the IC50 is below 0.1 nM.

With `N#Cc1cc(S(=O)(=O)N2CCS[C@H]2C(=O)O[C@@H](Cc2c(Cl)c[n+]([O-])cc2Cl)c2ccc(OC(F)F)c(OCC3CC3)c2)ccc1F` [Compound 209, 3,5-dichloro-4-((S)-2-((S)-3-(3-cyano-4-fluorophenylsulfonyl)thiazolidine-2-carbonyloxy)-2-(3-(cyclopropylmethoxy)-4-(difluoromethoxy)phenyl)ethyl)pyridine 1-oxide], the IC50 was in the range of 0.1 to 1 nM.

The values are drawn from patent US9931327B2, “Derivatives of 1-phenyl-2-pyridinyl alkyl alcohols as phosphodiesterase inhibitors” (Chiesi Farmaceutici S.p.A., priority 2011, dated 2018).
